Patent US10752621B2, “Oxazolidinone compounds and methods of use thereof as antibacterial agents” (priority 2017, dated 2020)
Converted amounts (≈) assume the structure as drawn. Where two headings read alike, the source gives them in different places.

System: Mycobacterium tuberculosis (Mtb-GFP; H37Rv pMSP12::GFP)
Assay: microbe, parasite or virus in culture
Format: cell-based
Conditions: 168 h
[1] = pH 6.8, read-out: Mtb Cho MITC95
[2] = pH 6.8, read-out: Mtb Glu MITC95

| SMILES | MIC [1] [µM] | MIC [2] [µM] |
| --- | --- | --- |
| Cn1nccc1-c1ccc(N2C[C@H](CN/C(N)=N/C#N)OC2=O)cc1F [Example 1, (S,E)-2-cyano-1-((3-(3-fluoro-4-(1-methyl-1H-pyrazol-5-yl)phenyl)-2-oxooxazolidin-5-yl)methyl)guanidine] | 0.78 (≈ 0.279 µg/mL) | 0.78 (≈ 0.279 µg/mL) |
| Cc1nnn(-c2ccc(-c3ccc(N4C[C@H](CN/C(N)=N/C#N)OC4=O)cc3F)cn2)n1 [Example 2, (S,E)-2-cyano-1-((3-(3-fluoro-4-(6-(5-methyl-2H-tetrazol-2-yl)pyridin-3-yl)phenyl)-2-oxooxazolidin-5-yl)methyl)guanidine] | 0.19 (≈ 0.0829 µg/mL) | 0.09 (≈ 0.0393 µg/mL) |
| N#C/N=C(\N)NC[C@H]1CN(c2ccc(-c3ccc(-n4nccn4)nc3)c(F)c2)C(=O)O1 [Example 3, (S,E)-1-((3-(4-(6-(2H-1,2,3-triazol-2-yl)pyridin-3-yl)-3-fluorophenyl)-2-oxooxazolidin-5-yl)methyl)-2-cyanoguanidine] | 0.19 (≈ 0.0801 µg/mL) | 0.19 (≈ 0.0801 µg/mL) |
| CS(=O)(=O)c1ccc(-c2ccc(N3C[C@H](CN/C(N)=N/C#N)OC3=O)cc2F)cc1 [Example 4, (S,E)-2-cyano-1-((3-(2-fluoro-4′-(methylsulfonyl)-[1,1′-biphenyl]-4-yl)-2-oxooxazolidin-5-yl)methyl)guanidine] | 0.39 (≈ 0.168 µg/mL) | 0.39 (≈ 0.168 µg/mL) |
| CS(=O)(=O)c1ccc(-c2ccc(N3C[C@H](CN/C(N)=N/C#N)OC3=O)cc2F)cn1 [Example 5, (S,E)-2-cyano-1-((3-(3-fluoro-4-(6-(methylsulfonyl)pyridin-3-yl)phenyl)-2-oxooxazolidin-5-yl)methyl)guanidine] | 0.39 (≈ 0.169 µg/mL) | 0.78 (≈ 0.337 µg/mL) |
| C/C(=N\C#N)NC[C@H]1CN(c2ccc(-c3ccnn3C)c(F)c2)C(=O)O1 [Example 6, (S,E)-N′-cyano-N-((3-(3-fluoro-4-(1-methyl-1H-pyrazol-5-yl)phenyl)-2-oxooxazolidin-5-yl)methyl)acetimidamide] | 0.78 (≈ 0.278 µg/mL) | 0.78 (≈ 0.278 µg/mL) |
| C/C(=N\C#N)NC[C@H]1CN(c2ccc(-c3cccc(S(N)(=O)=O)c3)c(F)c2)C(=O)O1 [Example 7, (S,E)-N′-cyano-N-((3-(2-fluoro-3′-sulfamoyl-[1,1′-biphenyl]-4-yl)-2-oxooxazolidin-5-yl)methyl)acetimidamide] | 1.14 (≈ 0.492 µg/mL) | 1.5 (≈ 0.647 µg/mL) |
| C/C(=N\C#N)NC[C@H]1CN(c2cnc(N3CCS(=O)(=O)CC3)c(F)c2)C(=O)O1 [Example 8, (S,E)-N′-cyano-N-((3-(6-(1,1-dioxidothiomorpholino)-5-fluoropyridin-3-yl)-2-oxooxazolidin-5-yl)methyl)acetimidamide] | 6.25 (≈ 2.57 µg/mL) | 6.25 (≈ 2.57 µg/mL) |
| C/C(=N\C#N)NC[C@H]1CN(c2ccc(N3CCOCC3)c(F)c2)C(=O)O1 [Example 9, (S,E)-N′-cyano-N-((3-(3-fluoro-4-morpholinophenyl)-2-oxooxazolidin-5-yl)methyl)acetimidamide] | 3.12 (≈ 1.13 µg/mL) | 3.12 (≈ 1.13 µg/mL) |
| C/C(=N\C#N)NC[C@H]1CN(c2ccc(-c3ccc(-n4nccn4)nc3)c(F)c2)C(=O)O1 [Example 10, (S,E)-N-((3-(4-(6-(2H-1,2,3-triazol-2-yl)pyridin-3-yl)-3-fluorophenyl)-2-oxooxazolidin-5-yl)methyl)-N′-cyanoacetimidamide] | 0.39 (≈ 0.164 µg/mL) | 0.14 (≈ 0.0589 µg/mL) |
| C/C(=N\C#N)NC[C@H]1CN(c2cc(F)c(N3CCS(=O)(=O)CC3)c(F)c2)C(=O)O1 [Example 11, (S,E)-N′-cyano-N-((3-(4-(1,1-dioxidothiomorpholino)-3,5-difluorophenyl)-2-oxooxazolidin-5-yl)methyl)acetimidamide] | 3.12 (≈ 1.33 µg/mL) | 1.5 (≈ 0.641 µg/mL) |
| C/C(=N\C#N)NC[C@H]1CN(c2ccc(-c3ccc(-n4nnc(C)n4)nc3)c(F)c2)C(=O)O1 [Example 12, (S,E)-N′-cyano-N-((3-(3-fluoro-4-(6-(5-methyl-2H-tetrazol-2-yl)pyridin-3-yl)phenyl)-2-oxooxazolidin-5-yl)methyl)acetimidamide] | 0.19 (≈ 0.0827 µg/mL) | 0.14 (≈ 0.061 µg/mL) |
| C/C(=N\C#N)NC[C@H]1CN(c2ccc(-c3ccc(S(C)(=O)=O)nc3)c(F)c2)C(=O)O1 [Example 13, (S,E)-N′-cyano-N-((3-(3-fluoro-4-(6-(methylsulfonyl)pyridin-3-yl)phenyl)-2-oxooxazolidin-5-yl)methyl)acetimidamide] | 1.5 (≈ 0.647 µg/mL) | 0.78 (≈ 0.337 µg/mL) |
| C/C(=N\C#N)NC[C@H]1CN(c2ccc(-c3ccc(S(C)(=O)=O)cc3)c(F)c2)C(=O)O1 [Example 14, (S,E)-N′-cyano-N-((3-(2-fluoro-4′-(methylsulfonyl)-[1,1′-biphenyl]-4-yl)-2-oxooxazolidin-5-yl)methyl)acetimidamide] | 0.58 (≈ 0.25 µg/mL) | 0.58 (≈ 0.25 µg/mL) |
| Cn1nccc1-c1ccc(N2C[C@H](CNC=N)OC2=O)cc1F [Example 15, (S)-N-((3-(3-fluoro-4-(1-methyl-1H-pyrazol-5-yl)phenyl)-2-oxooxazolidin-5-yl)methyl)formimidamide] | 0.78 (≈ 0.248 µg/mL) | 0.39 (≈ 0.124 µg/mL) |
| CS(=O)(=O)c1ccc(-c2ccc(N3C[C@H](CNC=N)OC3=O)cc2F)cc1 [Example 16, (S)-N-((3-(2-fluoro-4′-(methylsulfonyl)-[1,1′-biphenyl]-4-yl)-2-oxooxazolidin-5-yl)methyl)formimidamide] | 0.39 (≈ 0.153 µg/mL) | 0.19 (≈ 0.0744 µg/mL) |
| N=CNC[C@H]1CN(c2ccc(-c3ccc(-n4cnnn4)nc3)c(F)c2)C(=O)O1 [Example 17, (S)-N-((3-(4-(6-(1H-tetrazol-1-yl)pyridin-3-yl)-3-fluorophenyl)-2-oxooxazolidin-5-yl)methyl)formimidamide] | 0.24 (≈ 0.0918 µg/mL) | 0.12 (≈ 0.0459 µg/mL) |
| N=CNC[C@H]1CN(c2cc(F)c(-c3ccc(S(N)(=O)=O)cc3)c(F)c2)C(=O)O1 [Example 18, (S)-N-((3-(2,6-difluoro-4′-sulfamoyl-[1,1′-biphenyl]-4-yl)-2-oxooxazolidin-5-yl)methyl)formimidamide] | 0.39 (≈ 0.16 µg/mL) | 0.29 (≈ 0.119 µg/mL) |
| N=CNC[C@H]1CN(c2cc(F)c(-c3cccc(S(N)(=O)=O)c3)c(F)c2)C(=O)O1 [Example 19, (S)-N-((3-(2,6-difluoro-3′-sulfamoyl-[1,1′-biphenyl]-4-yl)-2-oxooxazolidin-5-yl)methyl)formimidamide] | 0.68 (≈ 0.279 µg/mL) | 0.39 (≈ 0.16 µg/mL) |
| N=CNC[C@H]1CN(c2cc(F)c(N3CCOCC3)c(F)c2)C(=O)O1 [Example 20, (S)-N-((3-(3,5-difluoro-4-morpholinophenyl)-2-oxooxazolidin-5-yl)methyl)formimidamide] | 0.58 (≈ 0.197 µg/mL) | 0.14 (≈ 0.0476 µg/mL) |
| CC(=N)NC[C@H]1CN(c2ccc(-c3ccnn3C)c(F)c2)C(=O)O1 [Example 21, (S)-N-((3-(3-fluoro-4-(1-methyl-1H-pyrazol-5-yl)phenyl)-2-oxooxazolidin-5-yl)methyl)acetimidamide] | 25 (≈ 8.28 µg/mL) | 25 (≈ 8.28 µg/mL) |
| CC(=N)NC[C@H]1CN(c2cc(F)c(-c3cccc(S(N)(=O)=O)c3)c(F)c2)C(=O)O1 [Example 22, (S)-N-((3-(2,6-difluoro-3′-sulfamoyl-[1,1′-biphenyl]-4-yl)-2-oxooxazolidin-5-yl)methyl)acetimidamide] | 6.25 (≈ 2.65 µg/mL) | 3.12 (≈ 1.32 µg/mL) |
| CC(=N)NC[C@H]1CN(c2ccc(-c3ccc(-n4cnnn4)nc3)c(F)c2)C(=O)O1 [Example 23, (S)-N-((3-(4-(6-(1H-tetrazol-1-yl)pyridin-3-yl)-3-fluorophenyl)-2-oxooxazolidin-5-yl)methyl)acetimidamide] | 12.5 (≈ 4.95 µg/mL) | 6.25 (≈ 2.48 µg/mL) |
| CC(=N)NC[C@H]1CN(c2ccc(-c3cccc(S(N)(=O)=O)c3)c(F)c2)C(=O)O1 [Example 24, (S)-N-((3-(2-fluoro-3′-sulfamoyl-[1,1′-biphenyl]-4-yl)-2-oxooxazolidin-5-yl)methyl)acetimidamide] | 6.25 (≈ 2.54 µg/mL) | 6.25 (≈ 2.54 µg/mL) |
| CC(=O)NC[C@H]1CN(c2ccc(N3CCOCC3)c(F)c2)C(=O)O1 [Linezolid, reference compound] | 3.14 (≈ 1.06 µg/mL) | 4.58 (≈ 1.55 µg/mL) |
